One assay has as its system Aβ42 production. In words: Quantification of Aβ peptide in culture of neurons from rat fetus brain (Aβ ELISA). To be noted: Neuron, 72 h; rat primary neuronal culture (cerebral cortex, embryonic day 18 Wistar rats); medium collected three days after addition of compound; Aβx-42 ELISA; read-out: Activity for reducing Aβ42 production IC50. The assay is classed as cell-based. As to the method: Quantification of Aβ Peptide in Culture of Neurons from Rat Fetus Brain
(1) Rat Primary Neuronal Culture
Primary neuronal cultures were prepared from the cerebral cortex of embryonic day 18 Wistar rats (Charles River Japan, Yokohama, Japan). Specifically, the embryos were aseptically removed from pregnant rats under ether anesthesia. The brain was isolated from the embryo and immersed in an ice-cold L-15 medium (Invitrogen Corp. Cat #11415-064, Carlsbad, Calif., USA, or SIGMA L1518, for example). The cerebral cortex was collected from the isolated brain under a stereoscopic microscope. The cerebral cortex fragments collected were enzymatically treated in an enzyme solution containing 0.25% trypsin (Invitrogen Corp. Cat #15050-065, Carlsbad, Calif., USA) and 0.01% DNase (Sigma D5025, St. Louis, Mo., USA) at 37° C. for 30 minutes to disperse the cells. Here, the enzymatic reaction was stopped by adding inactivated horse serum to the solution. The enzymatically treated solution was centrifuged at 1,500 rpm for five minutes to remove the supernatant. 5 to 10 ml of a medium was added to the resulting cell mass. Neurobasal medium (Invitrogen Corp. Cat #21103-049, Carlsbad, Calif., USA) supplemented with 2% B27 supplement (Invitrogen Corp. Cat #17504-044, Carlsbad, Calif., USA), 25 μM 2-mercaptoethanol (2-ME, WAKO Cat #139-06861, Osaka, Japan), 0.5 mM L-glutamine (Invitrogen Corp. Cat #25030-081, Carlsbad, Calif., USA), and Antibiotics-Antimycotics (Invitrogen Corp. Cat #15240-062, Carlsbad, Calif., USA) was used as the medium (Neurobasal/B27/2-ME). However, the above Neurobasal medium not supplemented with 2-ME (Neurobasal/B27) was used for the assay. The cells were redispersed by mild pipetting of the cell mass to which the medium was added. The cell dispersion was filtered through a 40-μm nylon mesh (Cell Strainer, Cat #35-2340, Becton Dickinson Labware, Franklin Lakes, N.J., USA) to remove the remaining cell mass, and thus a neuronal cell suspension was obtained. The neuronal cell suspension was diluted with the medium and then plated in a volume of 100 μl/well at an initial cell density of 5×10^5 cells/cm^2 in a 96-well polystyrene culture plate pre-coated with poly-L or D-lysine (Falcon Cat #35-3075, Becton Dickinson Labware, Franklin Lakes, N.J., USA coated with poly-L-lysine using the method shown below, or BIOCOAT™ cell environments Poly-D-lysine cell ware 96-well plate, Cat #35-6461, Becton Dickinson Labware, Franklin Lakes, N.J., USA). Poly-L-lysine coating was carried out as follows. 100 μg/ml of a poly-L-lysine (SIGMA P2636, St. Louis, Mo., USA) solution was aseptically prepared with a 0.15 M borate buffer (pH 8.5). 100 μl/well of the solution was added to the 96-well polystyrene culture plate and incubated at room temperature for one or more hours or at 4° C. overnight or longer. The coated 96-well polystyrene culture plate was washed with sterile water four or more times, and then dried or rinsed with, for example, sterile PBS or medium, and used for cell plating. The plated cells were cultured in the culture plate at 37° C. in 5% […]-95% air for one day. Then, the total amount of the medium was replaced with a fresh Neurobasal™/B27/2-ME medium, and then the cells were cultured for further three days.
The drug was added to the culture plate on Day 4 of culture as follows. The total amount of the medium was removed from the wells, and 180 μl/well of Neurobasal medium not containing 2-ME and containing 2% B-27 (Neurobasal/B27) was added thereto. A solution of the test compound in dimethyl sulfoxide (hereinafter abbreviated as DMSO) was diluted with Neurobasal/B27 so that the initial concentration was at 10-fold of the final concentration. 20 μl/well of the dilution was added to and sufficiently mixed with the medium. The final DMSO concentration was 1% or less. Only DMSO was added to the control group.
The cells were cultured for three days after addition of the compound, and the total amount of the medium was collected. […]
For `COc1cc(/C=C2\O[C@@H](C)CN([C@@H](C)c3ccc(Cl)nc3)C2=O)ccc1-n1cnc(C)c1` [Example 18, (Z)-(S)-4-[(S)-1-(6-chloropyridin-3-yl)ethyl]-2-[1-[3-methoxy-4-(4-methyl-1H-imidazol-1-yl)phenyl]methylidene]-6-methylmorpholin-3-one], the IC50 was determined as 0.183 µM. With `COc1cc(/C=C2\O[C@@H](C)CN([C@@H](C)c3ccnc(F)c3F)C2=O)ccc1-n1cnc(C)c1` [Example 24, (Z)-(S)-4-[(S)-1-(2,3-difluoropyridin-4-yl)ethyl]-2-[1-[3-methoxy-4-(4-methyl-1H-imidazol-1-yl)phenyl]methylidene]-6-methylmorpholin-3-one], the 50% inhibitory concentration (IC50) was 0.036 µM. Consider `Cc1cn(-c2ccc(/C=C3\CCCN([C@H](c4cc(F)c(F)c(F)c4)[C@@H](C)O)C3=O)cc2F)cn1` [Example 85, (E)-3-{1-[3-fluoro-4-(4-methyl-1H-imidazol-1-yl)phenyl]methylidene}-1-[(1R,2R)-2-hydroxy-1-(3,4,5-trifluorophenyl)propyl]piperidin-2-one], for which the IC50 is 0.064 µM. Turning to `COc1cc(/C=C2\O[C@@H](C)CN([C@H](C)c3ccc(Cl)nc3)C2=O)ccc1-n1cnc(C)c1` [Example 19, (Z)-(S)-4-[(R)-1-(6-chloropyridin-3-yl)ethyl]-2-[1-[3-methoxy-4-(4-methyl-1H-imidazol-1-yl)phenyl]methylidene]-6-methylmorpholin-3-one], the half-maximal inhibitory concentration (IC50) stood at 0.054 µM. In the case of `COc1cc(/C=C2\O[C@@H](C)CN([C@H](C)c3ccc(Cl)cn3)C2=O)ccc1-n1cnc(C)c1` [Example 21, (Z)-(S)-4-[(R)-1-(5-chloropyridin-2-yl)ethyl]-2-[1-[3-methoxy-4-(4-methyl-1H-imidazol-1-yl)phenyl]methylidene]-6-methylmorpholin-3-one], the IC50 worked out at 0.195 µM.

Regarding `COc1cc(/C=C2\O[C@H](C)CN([C@H]3CCOc4ccccc43)C2=O)ccc1-n1cnc(C)c1` [Example 14, (Z)-(R)-4-[(S)-chroman-4-yl]-2-[1-[3-methoxy-4-(4-methyl-1H-imidazol-1-yl)phenyl]methylidene]-6-methylmorpholin-3-one], the half-maximal inhibitory concentration (IC50) was found to be 0.146 µM. On the same count and under the same terms, the value for `COc1cc(/C=C2\O[C@@H](C)CN([C@@H](C)c3ccc(Cl)cn3)C2=O)ccc1-n1cnc(C)c1` [Example 20, (Z)-(S)-4-[(S)-1-(5-chloropyridin-2-yl)ethyl]-2-[1-[3-methoxy-4-(4-methyl-1H-imidazol-1-yl)phenyl]methylidene]-6-methylmorpholin-3-one] was 0.082 µM. For the molecule `COc1cc(/C=C2\O[C@H](C)CN([C@H](c3cc(F)c(F)c(F)c3)[C@@H](C)O)C2=O)ccc1-n1cnc(C)c1` [Example 29, (Z)-(6R)-4-[(1R,2R)-2-hydroxy-1-(3,4,5-trifluorophenyl)propyl]-2-[1-[3-methoxy-4-(4-methyl-1H-imidazol-1-yl)phenyl]methylidene]-6-methylmorpholin-3-one], the IC50 is 0.023 µM. The same measure, in the same setting: next, `COc1cc(/C=C2\O[C@@H](C)CN([C@H](C)c3ccnc(F)c3F)C2=O)ccc1-n1cnc(C)c1` [Example 25, (Z)-(S)-4-[(R)-1-(2,3-difluoropyridin-4-yl)ethyl]-2-[1-[3-methoxy-4-(4-methyl-1H-imidazol-1-yl)phenyl]methylidene]-6-methylmorpholin-3-one]: 0.141 µM; `COc1cc(/C=C2\O[C@@H](C)CN([C@H](c3ccc(F)cc3)[C@@H](C)O)C2=O)ccc1-n1cnc(C)c1` [Example 32, (Z)-(S)-4-[(1R,2R)-1-(4-fluorophenyl)-2-hydroxypropyl]-2-[1-[3-methoxy-4-(4-methyl-1H-imidazol-1-yl)phenyl]methylidene]-6-methylmorpholin-3-one]: 0.041 µM; `COc1cc(/C=C2\O[C@H](C)CN(Cc3cc(F)c(F)c(F)c3)C2=O)ccc1-n1cnc(C)c1` [Example 4, (Z)-(R)-2-[1-[3-methoxy-4-(4-methyl-1H-imidazol-1-yl)phenyl]methylidene]-6-methyl-4-(3,4,5-trifluorobenzyl)morpholin-3-one]: 0.069 µM. The same measure, in the same setting: next, `COc1cc(/C=C2\OC(C)(C)CN([C@H]3CCOc4ccccc43)C2=O)ccc1-n1cnc(C)c1` [Example 12, (Z)-4-[(S)-chroman-4-yl]-2-[1-[3-methoxy-4-(4-methyl-1H-imidazol-1-yl)phenyl]methylidene]-6,6-dimethylmorpholin-3-one]: 0.101 µM; `COc1cc(/C=C2\O[C@@H](C)CN([C@@H](C)c3cc(F)c(F)c(F)c3)C2=O)ccc1-n1cnc(C)c1` [Example 37, (Z)-(6S)-2-[1-[3-methoxy-4-(4-methyl-1H-imidazol-1-yl)phenyl]methylidene]-6-methyl-4-[(S)-1-(3,4,5-trifluorophenyl)ethyl]morpholin-3-one]: 0.02 µM. Consider `COc1cc(/C=C2\OC(C)(C)CN([C@H](c3ccc(F)c(F)c3)[C@@H](C)O)C2=O)ccc1-n1cnc(C)c1` [Example 35, (Z)-4-[(1R,2R)-1-(3,4-difluorophenyl)-2-hydroxypropyl]-2-[1-[3-methoxy-4-(methylimidazol-1-yl)phenyl]methylidene]-6,6-dimethylmorpholin-3-one], for which the half-inhibitory concentration (IC50) amounted to 0.023 µM. On the same count and under the same terms, the value for `COc1cc(/C=C2\OCCN(Cc3ccc(F)c(F)c3F)C2=O)ccc1-n1cnc(C)c1` [Example 2, (Z)-2-[1-[3-methoxy-4-(4-methyl-1H-imidazol-1-yl)phenyl]methylidene]-4-(2,3,4-trifluorobenzyl)morpholin-3-one] was 0.187 µM; that for `COc1cc(/C=C2\OC(C)(C)CN([C@@H](C)c3ccc(F)nc3F)C2=O)ccc1-n1cnc(C)c1` [Example 55, (Z)-4-[(S)-1-(2,6-difluoropyridin-3-yl)ethyl]-2-[1-[3-methoxy-4-(4-methyl-1H-imidazol-1-yl)phenyl]methylidene]-6,6-dimethylmorpholin-3-one] was 0.111 µM; that for `Cc1cn(-c2ccc(/C=C3\OC(C)(C)CN([C@H](c4cc(F)c(F)c(F)c4)[C@@H](C)O)C3=O)cc2F)cn1` [Example 77, (Z)-2-[1-[3-fluoro-4-(4-methyl-1H-imidazol-1-yl)phenyl]methylidene]-4-[(1R,2R)-2-hydroxy-1-(3,4,5-trifluorophenyl)propyl]-6,6-dimethylmorpholin-3-one] was 0.141 µM. The same measure, in the same setting: the value for `COc1cc(/C=C2\OC[C@H]3COC[C@@H](c4cc(F)c(F)c(F)c4)N3C2=O)ccc1-n1cnc(C)c1` [Example 108, (6R,9aR)-3-{1-[3-methoxy-4-(4-methyl-1H-imidazol-1-yl)phenyl]-(Z)-methylidene}-6-(3,4,5-trifluorophenyl)tetrahydro[1,4]oxazino[3,4-c][1,4]oxazin-4-one] was 0.06 µM; that for `COc1cc(/C=C2\O[C@H](C)CN(Cc3ccc(F)c(F)c3F)C2=O)ccc1-n1cnc(C)c1` [Example 6, (Z)-(R)-2-[1-[3-methoxy-4-(4-methyl-1H-imidazol-1-yl)phenyl]methylidene]-6-methyl-4-(2,3,4-trifluorobenzyl)morpholin-3-one] was 0.156 µM.

Still in this assay, the particulars now being: rat primary neuronal culture (cerebral cortex, embryonic day 18 Wistar rats); medium collected three days after addition of compound; Aβx-42 ELISA; read-out: Activity for reducing Aβ42 production IC50.
Take `COc1cc(/C=C2\OC[C@H]3CCC[C@@H](c4ccc(F)cc4)N3C2=O)ccc1-n1cnc(C)c1` [Example 16]: the concentration for half-maximal inhibition (IC50) was determined as 0.201 µM.

For orientation: IC50 means the point on the concentration scale where inhibition reaches its midpoint.

Source of the values: US7618960B2, “Morpholine type cinnamide compound” (Eisai R&D Management Co., Ltd., priority 2005, dated 2009).
